In patent US9617221B2, “Kinase modulators for the treatment of cancer” (Synovo GmbH, priority 2010, dated 2017):
Several values for one entry are separate records, joined by “and”; a condition that tells them apart may be missing. Equal values may be shown once.

Columns and labels:
T cells = test: Proliferation of Con A-stimulated T cells; assay type: cell-based, mice; details: 10 μM
Experimental: (§1) Peritoneal macrophage or splenocytes (lymphocytes and macrophage) were harvested from donor mice using standard techniques. Cells were placed in culture and stimulated with either LPS (10 μg/mL) or concanavalin A 5 μg/mL (Sigma Chemical Co., St Louis, Mo.) in RPMI-1640 medium supplemented with antibiotics, […] 2-mercaptoethanol, 10 mm HEPES buffer and 10% fetal calf serum (FCS) (see Holan et al., 1985) to stimulate macrophage and T-cells respectively. Compounds were added from DMSO stock solutions to a final concentration of 50 μM or less with DMSO not exceeding 1% of total volume. After 72 h, cell supernatant was recovered and the cytokine levels were estimated by ELISA. The effect of compounds on cytokine production was recorded as follows: […]

IFN-g = IFN-g production by ConA-stimulated T cells; assay type: cell-based, mice; details: 10 μM, 72 h
Experimental: as §1

IL-6 [1] = test: IL-6 production by LPS-stimulated macrophages; assay type: cell-based, mice; details: 10 μM, 72 h
Experimental: as §1

IL-1β = IL-1β production by LPS-stimulated macrophages; assay type: cell-based, mice; details: 5 μM, 72 h
Experimental: as §1

NO = NO production by LPS-stimulated macrophages; assay type: cell-based, mice; details: 10 μM, 72 h
IL-10 [2] = test: IL-10 production by LPS-stimulated murine peritoneal macrophage (ELISA); assay type: cell-based, mice; details: for IL-10 by ELISA, % of solvent treated control: murine peritoneal macrophage; for IL-10 (LPS, Macrophages), amount of cytokine: 10 μM, 72 h
Experimental: as §1

IL-4 = IL-4 production, Con A, spleen; assay type: cell-based, mice; details: 5 μM, 72 h
Experimental: as §1

IL-2 = IL-2 production by ConA-stimulated T cells; assay type: cell-based, mice; details: 10 μM, 72 h
Experimental: as §1

IL-10 [3] = test: IL-10 production by ConA-stimulated T cells; assay type: cell-based, mice; details: 10 μM, 72 h
Experimental: as §1

B cells = test: Proliferation of LPS-stimulated B cells; assay type: cell-based, mice; details: 10 μM
IL-23 = IL-23 gene expression in murine pancreatic cancer tumours (real time PCR); assay type: in vivo, mice; details: tumour mRNA; daily i.p. 10 μmol/kg; vehicle 15.2
Experimental: (§2) For treatment of pancreatic cancer, mice susceptible to pancreatic cancer were observed until cancer was apparent. Thereafter, animals were classified by ultrasound to a group of similar tumour size and were allocated to treatments: Vehicle, Gemcitabine 100 mg/kg every 5th day, or Gemcitabine plus the IL-10 inhibitor 43j ([…] i.p.), or the IL-12 stimulant 49 (10 μmol/kg/day i.p.) or all three combined at the doses specified.
(§3) Murine pancreatic cancer was induced as in Example 61. Mice carrying tumours were selected when the tumour was first detectable by ultrasound and the animals allocated to groups treated with either Vehicle, 49 alone or 43J alone or the combination of 49 and 43j. Compounds were supplied daily i.p. at 10 μmol/kg. Gene expression as determined by mRNA levels is determined by real time PCR methods using reverse transcribed templates.

IFNg = IFNg gene expression in murine pancreatic cancer tumours (real time PCR); assay type: in vivo, mice; details: tumour mRNA; daily i.p. 10 μmol/kg; vehicle 1.0
Experimental: as §2, §3

TNFa = TNFa gene expression in murine pancreatic cancer tumours (real time PCR); assay type: in vivo, mice; details: tumour mRNA; daily i.p. 10 μmol/kg; vehicle 15.2
Experimental: as §2, §3

IL-17 = IL-17 gene expression in murine pancreatic cancer tumours (real time PCR); assay type: in vivo, mice; details: tumour mRNA; daily i.p. 10 μmol/kg; vehicle 17.8
Experimental: as §2, §3

IL-10 [4] = test: IL-10 gene expression in murine pancreatic cancer tumours (real time PCR); assay type: in vivo, mice; details: tumour mRNA; daily i.p. 10 μmol/kg; vehicle 21.4
Experimental: as §2, §3

IL-12 [5] = test: IL-12 gene expression in murine pancreatic cancer tumours (real time PCR); assay type: in vivo, mice; details: tumour mRNA; daily i.p. 10 μmol/kg; vehicle 3.1
Experimental: as §2, §3

IL-10 [6] = test: IL-10 production by bone marrow derived macrophage or tumour associated macrophage; assay type: cell-based, C57BL/6 mice; details: 1 or 10 μM; stimulant such as LPS or TNFa or tumour conditioned medium
Experimental: (§4) A similar experiment can be performed using Bone marrow derived macrophage or Tumour associated macrophage (TAM): Mouse macrophages were derived from the bone marrow of WT, C57BL/6 mice and cultured for 7 d in DMEM medium supplemented with 10 ng/ml recombinant mouse M-CSF (R & D Systems). TAMs were isolated from the peritoneal cavity of mice in which IDB ovarian cancers had been growing i.p. for up to 10 wk. The macrophage are then treated with the compound to test at 1 or 10 μM in the presence of a stimulant such as LPS or TNFa or tumour conditioned medium.

IL-6 [7] = test: IL-6 gene expression in murine pancreatic cancer tumours (real time PCR); assay type: in vivo, mice; details: tumour mRNA; daily i.p. 10 μmol/kg; vehicle 22.5
Experimental: as §2, §3

IL-12 [8] = test: IL-12 production by bone marrow derived macrophage or tumour associated macrophage; assay type: cell-based, C57BL/6 mice; details: 1 or 10 μM; stimulant such as LPS or TNFa or tumour conditioned medium
Experimental: as §4

Row | Compound | Proliferation (Con A, T cells) (T cells) | IL-6 (LPS, Macrophages), amount of cytokine (IL-6 [1]) | IL-1β (Macrophages, LPS), amount of cytokine (IL-1β) | NO (LPS, Macrophages), % of control treated with solvent alone (NO) | IL-10 by ELISA, % of solvent treated control (IL-10 [2]; 5 μM inhibitor in medium) | IL-10 by ELISA, % of solvent treated control (IL-10 [2]; 20 μM inhibitor in medium) | IL-4 (Con A, spleen), amount of cytokine (IL-4) | IL-10 by ELISA, % of solvent treated control (IL-10 [2]; 1.25 μM inhibitor in medium) | also measured
1 | CC[C@H]1OC(=O)[C@H](C)[C@@H](OC2CC(C)(OC)C(O)C(C)O2)[C@H](C)[C@@H](OC2OC(C)CC(NC)C2O)C(C)(O)C[C@@H](C)C(=O)[C@H](C)[C@@H](O)C1(C)O (stereo partly shown) [Compound 16, 3′-desmethyl erythromycin] | 0 % of control treated with solvent alone | 85 % of control treated with solvent alone | 85 % of control treated with solvent alone | 63 % of control treated with solvent alone | 99 % of solvent treated control | 8 % of solvent treated control | – | – | IFN-g (ConA, T cells), amount of cytokine (IFN-g): 2 % of control treated with solvent alone; IL-10 by ELISA, % of solvent treated control (IL-10 [2]; 1 μM inhibitor in medium): 117 % of solvent treated control
2 | CC[C@H]1OC(=O)[C@H](C)[C@@H](O[C@H]2C[C@@](C)(OC)[C@@H](O)[C@H](C)O2)[C@H](C)[C@@H](O[C@@H]2O[C@H](C)C[C@H](N(C)CC3CO3)[C@H]2O)[C@](C)(O)C[C@@H](C)C(=O)[C@H](C)[C@@H](O)[C@]1(C)O (stereo partly shown) [Compound 18, 3′-desmethyl-3′-oxiranylmethyl erythromycin] | – | 90 % of control treated with solvent alone and 109 % of control treated with solvent alone and 106 % of control treated with solvent alone | 104 % of control treated with solvent alone and 81 % of control treated with solvent alone and 70 % of control treated with solvent alone | 47 % of control treated with solvent alone and 54 % of control treated with solvent alone and 65 % of control treated with solvent alone | 109 % of solvent treated control | 57 % of solvent treated control | 91 % of control treated with solvent alone and 84 % of control treated with solvent alone | – | IL-2 (ConA, T cells), amount of cytokine (IL-2): 52 % of control treated with solvent alone and 86 % of control treated with solvent alone; IL-10 (ConA, T cells), amount of cytokine (IL-10 [3]): 38 % of control treated with solvent alone and 70 % of control treated with solvent alone; IL-10 by ELISA, % of solvent treated control (IL-10 [2]; 1 μM inhibitor in medium): 124 % of solvent treated control; IL-10 by ELISA, % of solvent treated control (IL-10 [2]; 10 μM inhibitor in medium): 109 % of solvent treated control; IL-10 (LPS, Macrophages), amount of cytokine (IL-10 [2]): 110 % of control treated with solvent alone and 108 % of control treated with solvent alone
3 | CC[C@H]1OC(=O)[C@H](C)[C@@H](O[C@H]2C[C@@](C)(OC)[C@@H](O)[C@H](C)O2)[C@H](C)[C@@H](O[C@@H]2O[C@H](C)C[C@H](N(C)CC(O)CSc3nc(-c4ccc(F)cc4)c(-c4ccncc4)[nH]3)[C@H]2O)[C@](C)(O)C[C@@H](C)CN(C)[C@H](C)[C@@H](O)[C@]1(C)O (stereo partly shown) [Compound 20] | 0 % of control treated with solvent alone | – | 34 % of control treated with solvent alone | – | −12 % of solvent treated control | −12 % of solvent treated control | −5 % of control treated with solvent alone | −11 % of solvent treated control | Proliferation (LPS, B cells) (B cells): −1 % of control treated with solvent alone
4 | CC[C@H]1OC(=O)[C@H](C)[C@@H](O)[C@H](C)[C@@H](O[C@@H]2O[C@H](C)C[C@H](N(C)CC(O)CSc3nc(-c4ccc(F)cc4)c(-c4ccncc4)[nH]3)[C@H]2O)[C@](C)(O)C[C@@H](C)CN(C)[C@H](C)[C@@H](O)[C@]1(C)O (stereo partly shown) [Compound 22] | 10 % of control treated with solvent alone | 116 % of control treated with solvent alone | 90 % of control treated with solvent alone and 106 % of control treated with solvent alone | 69 % of control treated with solvent alone | 43 % of solvent treated control | −3 % of solvent treated control | 237 % of control treated with solvent alone and 407 % of control treated with solvent alone | 86 % of solvent treated control | IL-2 (ConA, T cells), amount of cytokine (IL-2): 29 % of control treated with solvent alone; IFN-g (ConA, T cells), amount of cytokine (IFN-g): 41 % of control treated with solvent alone; IL-10 (ConA, T cells), amount of cytokine (IL-10 [3]): 144 % of control treated with solvent alone; IL-10 by ELISA, % of solvent treated control (IL-10 [2]; 0.31 μM inhibitor in medium): 103 % of solvent treated control; IL-10 by ELISA, % of solvent treated control (IL-10 [2]; 10 μM inhibitor in medium): 13 % of solvent treated control; IL-10 (LPS, Macrophages), amount of cytokine (IL-10 [2]): 13 % of control treated with solvent alone
5 | CC[C@H]1OC(=O)[C@H](C)[C@@H](O[C@H]2C[C@@](C)(OC)[C@@H](O)[C@H](C)O2)[C@H](C)[C@@H](O[C@@H]2O[C@H](C)C[C@H](N(C)CCCC(=O)OCC(O)CSc3nc(-c4ccc(F)cc4)c(-c4ccncc4)[nH]3)[C@H]2O)[C@](C)(O)C[C@@H](C)CN(C)[C@H](C)[C@@H](O)[C@]1(C)O (stereo partly shown) [Compound 43g] | 3 % of control treated with solvent alone | – | 28 % of control treated with solvent alone | – | −12 % of solvent treated control | −12 % of solvent treated control | 125 % of control treated with solvent alone | 26 % of solvent treated control | Proliferation (LPS, B cells) (B cells): −1 % of control treated with solvent alone
6 | CC[C@H]1OC(=O)[C@H](C)[C@@H](O[C@H]2C[C@@](C)(OC)[C@@H](O)[C@H](C)O2)[C@H](C)[C@@H](O[C@@H]2O[C@H](C)C[C@H](N(C)CCCCCC(=O)OCCSc3nc(-c4ccc(F)cc4)c(-c4ccnc(NC5CCOCC5)c4)[nH]3)[C@H]2O)[C@](C)(O)C[C@@H](C)CN(C)[C@H](C)[C@@H](O)[C@]1(C)O [Compound 43j] | – | – | – | – | – | – | – | – | Relative Gene expression, IL-23 (IL-23): 11.0; Relative Gene expression, IFNg (IFNg): 4.2; Relative Gene expression, TNFa (TNFa): 13.1; Relative Gene expression, IL-17 (IL-17): 14.6; Relative Gene expression, IL-10 (IL-10 [4]): 3.1; Relative Gene expression, IL-12 (IL-12 [5]): 3.4; production of IL-10 (IL-10 [6]): inhibits the production of IL-10; Relative Gene expression, IL-6 (IL-6 [7]): 15.2
7 | Nc1c(C(=O)c2cccc(OCC(O)CO)c2)cnn1-c1ccc(F)cc1 (stereo not shown) [Compound 49, [5-Amino-1-(4-fluoro-phenyl)-1H-pyrazol-4-yl]-[3-(2,3-dihydroxy-propoxy)-phenyl]-methanone] | – | – | – | – | 42 % of solvent treated control | 13 % of solvent treated control | 188 % of control treated with solvent alone | 41 % of solvent treated control | Relative Gene expression, IL-23 (IL-23): 2.1; Relative Gene expression, IFNg (IFNg): 6.3; Relative Gene expression, TNFa (TNFa): 21.4; Relative Gene expression, IL-17 (IL-17): 15.2; Relative Gene expression, IL-10 (IL-10 [4]): 8.9; production of IL-12 (IL-12 [8]): stimulates the production of IL-12; Relative Gene expression, IL-12 (IL-12 [5]): 28.8; Relative Gene expression, IL-6 (IL-6 [7]): 18.3
